Laboratory results published in US20100311726A1, “REDUCTION OF BETA-AMYLOID LEVELS BY TREATMENT WITH THE SMALL MOLECULE DIFFERENTIATION-INDUCING FACTOR” (priority 2007, published 2010).

Experiments:
naïve CHO cells = assay: Flow cytometry cell cycle distribution, naive CHO; format: cell-based, Chinese Hamster; conditions: 25 μM overnight
Method: (§1) Naïve and CHO-7W cells were collected by trypsin/EDTA treatment and counted using a haemocytometer. The cells (1×10^5) were deposited into 10 cm tissue culture dishes containing fresh media and grown for 24 hours prior to DIF-1 treatment (25 μM). Cells were grown in the presence of DIF-1 for approximately 20 hours. Cells harvested by the trypsin/EDTA treatment were suspended in hypotonic fluorochrome solution containing 50 ug/ml of propidium iodide, 0.1% sodium citrate, and 0.1% Triton X-100. Cells (5×10^4) for each sample were analyzed for fluorescence using the Massachusetts General Hospital cytology core. Cell cycle distribution was compared between vehicle and DIF-1 treated nave CHO cells, and CHO-7W cells. The percentage of cells in G0/G1, S-phase and G2/M represents the mean cell number±the standard deviation from at least 3 separate experiments.
To determine where in the cell cycle DIF-1 acts, we assessed the cell cycle distribution of naïve CHO cells using flow cytometry (FIG. 1B). CHO cells were incubated with DIF-1 (25 μM) for the indicated periods and then harvested by the trypsin/EDTA treatment, fixed and stained with propidium iodide (PI) and fluorescence of nuclei was measured. Histogram peaks are labeled by phases (G0/G1, S and G2/M). The percentages of cell number in the cell cycle phases are shown as means+/−S.E. of three independent experiments performed in duplicate. […]

CHO-7W cells = assay: Flow cytometry cell cycle distribution, CHO-7W; format: cell-based, Chinese Hamster; conditions: 25 μM
Method: as §1
CHO/APP cells were incubated with DIF-1 (25 μM) for the indicated periods and then harvested, fixed and stained with propidium iodide (PI) and fluorescence of nuclei was measured. Histogram peaks are labeled by phases. The percentages of cell number in the cell cycle phases are shown as means+/−S.E. of three independent experiments performed in duplicate. The effects of DIF-1 on CHO-7W cell growth is also a result of G0/G1 cell cycle block (50.1%±1.1) as measured by flow cytometry (FIG. 2B).

Aβ42 = assay: Secreted Aβ42 sandwich ELISA of conditioned media; format: cell-based, human
Method: The levels of secreted Aβ from CHO-7W cells stably overexpressing APP^751 and CHO-CAB cells that overexpress APP^751 and human BACE1 was quantified by ELISA and viewed by western blot using the monoclonal anti-APP antibody (6E10) that recognizes residues 1-17 of Aβ. Cells (5×10^5) were deposited into 6-well tissue culture dishes in triplicate and allowed to settle and grow for 24 hours. At this time, the media was aspirated and the cells were washed 2× in warm PBS. Fresh media (2 mL) and media supplemented with vehicle or DIF-1 was added to each well. […] Since DIF-1 exerts a cytostatic effect, the cell number was counted for all treatments upon removal of the conditioned media and used to normalize the levels of Aβ. […] The concentration of Aβ40 and Aβ42 was subsequently detected in triplicate using the β-Amyloid 1-40 or 1-42 Colorimetric ELISA kit (Biosource International, Inc.) according to the manufacturer's instructions.
We then looked at what effect this had on the levels of secreted soluble APP and Aβ production. […] The conditioned media was analyzed using anti-APP antibody 6E10 in order to detect total βP levels and sαAPP levels since it recognizes the amino acids 1-17 of Aβ and thus cannot detect sβAPP. […] The blots were analyzed using a phosphorimager. […]

CCCCCC(=O)c1c(O)c(Cl)c(OC)c(Cl)c1O [DIF-1, 1-[3,5-dichloro-2,6-dihydroxy-4-methoxyphenyl]-1-hexanone]
percentage of cells in G0/G1 (naïve CHO cells): 52.6%±0.9 | G0/G1 cell cycle block (percentage of cells) (CHO-7W cells): 50.1%±1.1 | reduction of secreted Aβ42 (Aβ42; CHO-7W, 30 μM overnight): 63.9±7.15% | reduction of secreted levels of Aβ42 (Aβ42; conditioned media from either CHO-7W or CHO-CAB cells): 66.9±2.6%
